Data from patent US11525106B2, “Tetraacetyldiamine and triacetyldiamine derivatives useful as bleach activators” (DOW GLOBAL TECHNOLOGIES LLC, priority 2018, dated 2022).

Tests used:
[1] = hydrolytic degradation in buffer, followed by HPLC; type: physicochemical; settings: pH 9.0
[2] = bleaching test with food dye and hydrogen peroxide; settings: FIG. 2; for time after which the blue color was bleached: food dye in Tris buffer pH 8.0 with H2O2 (30%) 1:1, 10 mg compound per mL; for bleaching activation effect: food dye (blue) with H2O2, room temperature
Protocol: (§1) To study the hydrolytic degradation, 1 and 2 were dissolved in Tris buffer (pH 8.0, 0.1 M):acetonitrile (can) mixture (3:1, v/v) at 50 μg/mL. The perhydrolytic degradation was evaluated at similar conditions in the presence of sodium perborate (10 equiv.). Commercially available bleach activator, tetraacetylethylenediamine (TAED), was used as a control. The mixture was incubated at room temperature (20° C.) for 20 days. At different time intervals, an aliquot of the solution was taken out and analyzed by HPLC. The concentration of 1 and 2 was quantified by UV-vis absorption at Δmax=218 nm through standard curve. For the bleaching test, 1, 2, TAED, and other control molecules (20 mg) were treated with commercially available food dyes (100× dilution, 1 mL) and hydrogen peroxide (H2O2, 30%, 1 mL). The mixtures were incubated at room temperature (20° C.) and checked at different time intervals to monitor the bleaching of the dyes.
The compounds of the invention were subjected to a bleaching test. The food dye was purchased from Adams Extract, and diluted 500 times with Tris buffer (pH 8.0, 0.1 M) before use. The diluted food dye was mixed with H2O2 (30%) in 1:1 ratio (v/v). For every 10 mg of TAED/TA(Me)ED/TriA(Me)ED, 1 mL of food dye/H2O2 mixture was added. The widely used bleach activator TAED actively reacted with H2O2, and the blue color disappeared after about 24 hours.

[3] = perhydrolytic degradation in the presence of sodium perborate (10 equiv.), followed by HPLC; type: physicochemical; settings: sodium perborate/persalts 10 equiv.
Protocol: as §1

[4] = hydrolytic degradation in buffer, followed by HPLC; type: physicochemical; settings: for kH (hydrolysis rate constant) / half-life at 50 μg/mL: Tris buffer pH 8.0 (0.1 M):acetonitrile 3:1, 50 μg/mL, 20° C.; for half-life at 50 μg/mL: Tris buffer:acetonitrile (3:1, v/v), read-out: t1/2,H (hydrolysis half-life) (converted); for half-life relative to half-life of TAED: pH 8.0; for hydrolytic degradation compared with TAED: pH 8.0, FIG. 1A
Protocol: as §1

[5] = solubility in aqueous environment; type: physicochemical; settings: without organic solvent

half-life relative to half-life of TAED [1] [times longer] | perhydrolysis rate, comparison among TAED, 1 and 2 [3] | kH (hydrolysis rate constant) [4] [h⁻¹] | half-life at 50 μg/mL [4] [h] | half-life relative to half-life of TAED [4] [times longer] | hydrolytic degradation compared with TAED [4] | hydrolysis compared to TAED ([4]; pH values between about 5 and 9) | hydrolysis compared to TAED ([4]; basic pH) | solubility in water [5] | SMILES | time after which the blue color was bleached [2] | bleaching activation effect [2]
2.6 | comparable | 0.0038 | 181 | 1.5 | slower degradation | slower hydrolysis | – | – | CC(=O)N(CC(C)N(C(C)=O)C(C)=O)C(C)=O (stereo not drawn) [Compound 1, N,N′-(propane-1,2-diyl)bis(N-acetylacetamide)] | 24 h | –
– | – | – | – | – | – | – | – | – | CC(=O)NCC(C)NC(C)=O (stereo not drawn) [Compound 3, N,N′-(propane-1,2-diyl)diacetamide, reference compound] | – | did not exhibit any bleaching activation effect
– | – | – | – | – | – | – | – | – | CC(=O)NCCNC(C)=O [DAED, diacetylethylenediamine, reference compound] | – | did not exhibit any bleaching activation effect
5.8 | comparable | 0.0015 | 462 | 5.7 | slower degradation | – | even slower hydrolysis | – | CC(=O)NC(C)CN(C(C)=O)C(C)=O (stereo not drawn) [Compound 2, N-(2-acetamidopropyl)-N-acetylacetamide] | 24 h | much slower bleaching action
– | comparable | 0.0091 | 76 | – | – | – | – | cannot be easily solubilized in water | CC(=O)N(CCN(C(C)=O)C(C)=O)C(C)=O [TAED, tetraacetylethylenediamine, reference compound] | about 24 hours | –
